Assay results reported in the supplement of paper PMC7840683.
± gives the standard deviation of the averaged measurements.

System: HepaRG
Assay: LDH release cytotoxicity, % of total lysis control; higher = more cytotoxic
Conditions: 48 h
Outline: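 On collagen I-coated 96-well plates, single-lot HepaRG cells were exposed for 48 h, in duplicate, to eight-point half-log series of test chemicals beginning at 100 µM. The exposure medium was serum-free induction medium with 0.5% DMSO, and total lysis wells got 0.1% Triton X. Resorufin fluorescence from the CytoTox-ONE reaction, read on a Tecan Safire, reported LDH in 50 µL of spent medium. Percent cytotoxicity came from normalization to on-plate vehicle and total lysis controls, averaged over the duplicates.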

SMILES	LDH release cytotoxicity (0.03162 µM)	LDH release cytotoxicity (0.1 µM)	LDH release cytotoxicity (0.3162278 µM)	LDH release cytotoxicity (1 µM)	LDH release cytotoxicity (3.16228 µM)	LDH release cytotoxicity (10 µM)	LDH release cytotoxicity (31.6228 µM)	LDH release cytotoxicity (100 µM)	also measured
CC1(C)C(=O)NC(=O)N1CO [1-(Hydroxymethyl)-5,5-dimethylhydantoin]	-1.56 ± 1.1%	-1.1 ± 1.7%	-1.77 ± 0.95%	-1.77 ± 0.48%	-1.55 ± 0.76%	-1.08 ± 0.36%	-0.999 ± 0.29%	0.312 ± 0.47%	
COc1ccc2c(c1)c(CC(=O)O)c(C)n2C(=O)c1ccc(Cl)cc1 [1-(p-Chlorobenzoyl)-5-methoxy-2-methyl-Indole-3-acetic acid]	-0.418 ± 0.2%	-0.408 ± 0.23%	-0.399 ± 0.2%	0.493 ± 0.042%	0.818 ± 0.36%	0.284 ± 0.81%	0.637 ± 0.53%	1.2 ± 0.22%	
c1ccc(C[n+]2cccc3ccccc32)cc1 [1-Benzylquinolinium chloride]									LDH release cytotoxicity (0.0327296 µM): -1.88 ± 0.03%; LDH release cytotoxicity (0.1035 µM): -1.6 ± 0.26%; LDH release cytotoxicity (0.327296 µM): -1.47 ± 1.5%; LDH release cytotoxicity (1.035 µM): -1.94 ± 0.25%; LDH release cytotoxicity (3.27296 µM): -1.92 ± 0.61%; LDH release cytotoxicity (10.35 µM): -0.779 ± 0.81%; LDH release cytotoxicity (32.729574 µM): 0.264 ± 0.71%; LDH release cytotoxicity (103.5 µM): -1.31 ± 1.1%
O=[N+]([O-])c1ccc(Cl)cc1 [1-Chloro-4-nitrobenzene]	-0.012 ± 0.35%	-0.728 ± 0.66%	0.037 ± 0.14%	-0.523 ± 0.12%	-0.0534 ± 0.38%	0.685 ± 0.47%	5.08 ± 0.88%	18 ± 1.8%	
CCCCCCCCCCO [1-Decanol]	-1.47 ± 0.66%	-2.45 ± 1%	-1.67 ± 0.81%	-2.76 ± 0.3%	-1.79 ± 1%	-1.21 ± 0.22%	-0.773 ± 0.89%	0.757 ± 0.16%	
CCCCCCCCCCCCO [1-Dodecanol]		-0.16 ± 8%		-2.62 ± 3.8%	-2.27 ± 3.2%	-0.892 ± 4.2%	-1.67 ± 1%	-0.399 ± 1.2%	LDH release cytotoxicity (0.031623 µM): -3.98 ± 0.71%; LDH release cytotoxicity (0.316228 µM): -2.69 ± 2.2%
CCCCCCCCCCCCN1CCCC1=O [1-Dodecyl-2-pyrrolidinone]		-0.917 ± 1.2%		-2.75 ± 1%	-3.37 ± 2%	-2.86 ± 0.27%	-2.4 ± 0.15%	0.295 ± 0.75%	LDH release cytotoxicity (0.031623 µM): -0.38 ± 1.3%; LDH release cytotoxicity (0.316228 µM): -3 ± 1.8%
CCCCCCCCCCCCCCCCO [1-Hexadecanol]									LDH release cytotoxicity (0.0320971 µM): -2.16 ± 0.6%; LDH release cytotoxicity (0.1015 µM): -2.95 ± 0.21%; LDH release cytotoxicity (0.320971 µM): -2.48 ± 0.093%; LDH release cytotoxicity (1.015 µM): -3.51 ± 0.26%; LDH release cytotoxicity (3.2097118 µM): -3.1 ± 0.27%; LDH release cytotoxicity (10.15 µM): -2.1 ± 0.81%; LDH release cytotoxicity (32.0971 µM): -1.56 ± 0.39%; LDH release cytotoxicity (101.5 µM): 3.36 ± 0.21%
Oc1ccc2ccc3cccc4ccc1c2c34 [1-Hydroxypyrene]	-0.176 ± 0.49%	-0.855 ± 0.05%	-1.52 ± 0.41%	-1.23 ± 0.16%	-1.18 ± 0.77%	-0.495 ± 0.78%	-0.838 ± 0.25%	0.111 ± 0.6%	
COCC(C)O (configuration not stated) [1-Methoxy-2-propanol]	-0.68 ± 0.076%	-1.18 ± 1.1%	-1.53 ± 0.67%	-1.81 ± 0.6%	-1.09 ± 0.06%	-0.197 ± 0.52%	-0.477 ± 0.073%	0.469 ± 0.036%	
Cn1cc(-c2ccccc2)c(=O)c(-c2cccc(C(F)(F)F)c2)c1 [1-Methyl-3-phenyl-5-(3-(trifluoromethyl)phenyl)-4-pyridone]									LDH release cytotoxicity (0.02893 µM): -1.78 ± 0.74%; LDH release cytotoxicity (0.0915 µM): -1.31 ± 0.83%; LDH release cytotoxicity (0.289348 µM): -1.94 ± 0.24%; LDH release cytotoxicity (0.915 µM): -2.56 ± 0.53%; LDH release cytotoxicity (2.89348 µM): -2.08 ± 0.3%; LDH release cytotoxicity (9.15 µM): -2.29 ± 0.32%; LDH release cytotoxicity (28.9348 µM): -1.81 ± 0.048%; LDH release cytotoxicity (91.5 µM): 20.3 ± 0.7%
Cc1cccc2ccccc12 [1-Methylnaphthalene]		-2.7 ± 0.83%		-3.13 ± 0.52%	-2.9 ± 0.43%	-2.97 ± 0.64%	-1.66 ± 0.63%	13.3 ± 7.7%	LDH release cytotoxicity (0.031623 µM): -2.15 ± 0.06%; LDH release cytotoxicity (0.316228 µM): -2.77 ± 1.2%
CCCCCCCCO [1-Octanol]	-0.769 ± 1%	-1.52 ± 0.36%	-0.614 ± 0.069%	-1.76 ± 0.5%	-2.15 ± 1.1%	-1.49 ± 0.68%	1.06 ± 0.25%	2.86 ± 2.5%	
CCCCCCCCCCCCCCCO [1-Pentadecanol]	0.0106 ± 0.14%	-0.465 ± 0.06%	0.131 ± 0.74%	-0.574 ± 0.11%	0.207 ± 0.55%	0.233 ± 0.26%	0.338 ± 0.26%	2.58 ± 0.24%	
CCCCCCCCCCCCCCO [1-Tetradecanol]	-1.1 ± 0.46%	-2.17 ± 0.9%	-0.313 ± 1%	-2.29 ± 0.65%	-2.1 ± 0.054%	-1.49 ± 0.62%	-1.69 ± 0.017%	6.5 ± 2.2%	
C=CCCCCCCCCCCCC [1-Tetradecene]		-3.45 ± 0.87%		-4.65 ± 0.72%	-3.81 ± 0.5%	-4.29 ± 0.17%	-4.23 ± 0.41%	-4.05 ± 0.7%	LDH release cytotoxicity (0.031623 µM): -1.3 ± 1.6%; LDH release cytotoxicity (0.316228 µM): -3.94 ± 1.4%
CCCCCCCCCCCCCO [1-Tridecanol]	-1.51 ± 0.42%	-0.843 ± 0.39%	-0.758 ± 0.15%	-0.914 ± 0.16%	-0.263 ± 1%	0.564 ± 1.8%	0.347 ± 1.4%	3.78 ± 2.1%	
CCCCCCCCCCCO [1-Undecanol]									LDH release cytotoxicity (0.01581 µM): -2.55 ± 0.72%; LDH release cytotoxicity (0.05 µM): -3.97 ± 0.19%; LDH release cytotoxicity (0.1581139 µM): -3.8 ± 1.3%; LDH release cytotoxicity (0.5 µM): -4.64 ± 0.28%; LDH release cytotoxicity (1.5811388 µM): -2.84 ± 0.45%; LDH release cytotoxicity (5 µM): -3.15 ± 0.031%; LDH release cytotoxicity (15.8114 µM): -2.96 ± 1.5%; LDH release cytotoxicity (50 µM): 4.08 ± 2.9%
CCO[Si](CCCNC(N)=O)(OCC)OCC [1-[3-(Triethoxysilyl)propyl]urea]	-1.05 ± 0.013%	-2.25 ± 0.44%	-1.8 ± 0.35%	-2.22 ± 0.071%	-2.28 ± 0.25%	-1.64 ± 0.34%	-1.55 ± 0.96%	0.263 ± 0.38%	
